From patent US7659240B2, “Mucin immobilized chromatography” (Vertex Pharmaceuticals Incorporated, priority 2002, dated 2010)
Like-named read-outs stand apart in the source and are kept apart here.

Assays:
[1] = from literature; cited from earlier work
Caco-2 = details: from literature, cited from earlier work
[2] = test system: mucin immobilized to IAM.PC.DD2; test: HPLC on MIC column (2:1 mucin to PC IAM particles): retention time, k′MIC, derived Km and Peff MIC; details: for Peff MIC (×10^−4 cm/s): determined by linear equation
Method: [formula] where Dm is the membrane diffusion coefficient of the solute, Km is the membrane equilibrium constant, and L is the membrane thickness (Stein, W., Transport and Diffusion Across Cell Membranes, Academic Press, Orlando, Fla. (1986)). […] Since molecular weight, MW, is proportional to molecular size, Dm may also written as,
[formula] Thus, Dm can be calculated from the molecular weight. Furthermore, Km is calculated by the following equation, Km−(Vm/Vs)k′, [4] where Vm is the volume of the mobile phase, Vs is the internal volume of the stationary phase, and k′ is the partition ratio (Pidgeon and Ong, Chemtech. June, 38-48 (1995)). The partition ratio is determined by the equation, k′−(tr−to)/to, [5] where tr is the retention time of the drug and to is the void volume of the column. Both tr and to can be experimentally determined in order to obtain k′.
Equation 2 can be used to determine Km for a given MIC medium. Both Dm and L are known from the discussion above, and Peff can be calculated for various drugs having known in vivo absorption. For example, a number of drug permeability coefficients, Peff, derived from in vivo experiments are listed in literature. […] See Example 5 below.

[3] = single-pass perfusions, cited from earlier work
[4] = test system: mucin immobilized to PC IAM particles; test: pH and mucin layer thickness dependence of partition ratio on MIC columns (1:2 and 2:1)
Method: Samples were dissolved in mobile phase solution and filtered (filter pore size, 0.45 μm) prior to injection. […] From this measurement and a measurement of the void volume (t0) the k′MIC could be determined. In addition, from the molecular weight of the compounds, Dm could be determined. These compounds, with the exceptions noted below, were used to generate the column constant (Vm/Vs).
For these reasons, the influence of pH on drug retention times was measured on columns having two different mucin layer thicknesses, 0.32 μm (column prepared with a 1:2 wt % of mucin to PC IAM particles) and 0.36 μm (column prepared with a 2:1 wt % of mucin to PC IAM particles)(Table 8). […] The influence of pH on drug retention time was measured by using different mobile phase buffers adjusted to pH 3, 5 or 7 on either the 0.32 μm or 0.36 μm column.
Capacity factors were calculated from drug retention times collected on columns having two different mucin layer thicknesses, 0.32 μm (column prepared with a 1:2 wt % of mucin to PC IAM particles) and 0.36 μm (column prepared with a 2:1 wt % of mucin to PC IAM particles).

[5] = cited from earlier work

In the case of CC(C)(C)NCC(O)c1cc(O)cc(O)c1 (centres unmarked) [Terbutaline], the “log k′IAM” value [1] is listed as 0.50, the “Peff Caco-2 (×10^−6 cm/s)” value (Caco-2; Table 5) is listed as 0.47 ×10^−6 cm/s and the “Peff Caco-2 (×10^−6 cm/s)” value (Caco-2; Table 6) is listed as 0.47 ×10^−6 cm/s. For the same molecule, the “δ = log k′MIC − log k′IAM” value [2] was 1.14, the “log k′MIC” value ([2]; MIC 2:1) was 1.64 and the “K′MIC” value ([2]; MIC 2:1, Table 5) was 43. For the same molecule, the “K′MIC” value ([2]; MIC 2:1, Table 6) was 43.29, the “k′MIC” value ([2]; MIC column 2:1 mucin:IAM, MPS pH 7.4) was 43.2857 and the “Retention Time” value ([2]; MIC column 2:1 mucin:IAM, MPS pH 7.4, isocratic 0.3 ml/min) was 3.1. For the same molecule, the “Peff MIC (×10^−4 cm/s)” value ([2]; Table 5) was 1.21 ×10^−4 cm/s, the “Peff MIC (×10^−4 cm/s)” value ([2]; Table 6) was 1.21 ×10^−4 cm/s and the Dm ([2]; membrane diffusion coefficient calculated from molecular weight) was 0.0036. The “Peff Loc-I-Gut (×10^−4 cm/s)” value ([3]; Table 5) was 0.3 ×10^−4 cm/s, the “Peff Loc-I-Gut (×10^−4 cm/s)” value ([3]; Table 6) was 0.3 ×10^−4 cm/s and the “Peff Loc-I-Gut (×10^−4 cm/s)” value ([3]; Table 9) was 0.3 ×10^−4 cm/s. The “k′MIC (1:2)” value ([4]; column 1:2, 0.32 μm, pH 7, Table 9) was 39, the “(1:2) k′ (pH 3)” value ([4]; column 1:2 mucin to PC IAM, 0.32 μm mucin layer, mobile phase pH 3) was 45.67 and the “(1:2) k′ (pH 5)” value ([4]; column 1:2 mucin to PC IAM, 0.32 μm mucin layer, mobile phase pH 5) was 49.00. The “(1:2) k′ (pH 7)” value ([4]; column 1:2 mucin to PC IAM, 0.32 μm mucin layer, mobile phase pH 7) was 39.00, the “k′MIC (2:1)” value ([4]; column 2:1, 0.36 μm, pH 7, Table 9) was 35.7 and the “(2:1) k′ (pH 3)” value ([4]; column 2:1 mucin to PC IAM, 0.36 μm mucin layer, mobile phase pH 3) was 34.71. The “(2:1) k′ (pH 5)” value ([4]; column 2:1 mucin to PC IAM, 0.36 μm mucin layer, mobile phase pH 5) was 37.57, the “(2:1) k′ (pH 7)” value ([4]; column 2:1 mucin to PC IAM, 0.36 μm mucin layer, mobile phase pH 7) was 35.67 and the “% Absorbed” value ([5]; Table 5) was 60%. The “% Absorbed” value ([5]; Table 6) was 60% and the “% Absorbed” value ([5]; Table 7) was 60%.
